Assay results as given in PubChem BioAssay AID330 (DTP/NCI, 2004).
Where “and” joins values, the source holds several entries; their conditions need not be identical. Equal values may be shown once. Inconclusive results and toxic doses are left out. Rule for the calls: active = survival T/C of 150% or more; inactive = T/C below 125% in these data.

Tested on: P388 leukemia ip, CD2F1 mice, survival T/C
Test: NCI In Vivo Anticancer Drug Screen. Data for tumor model P388 Leukemia (intraperitoneal) in CD2F1 (CDF1) mice
Conditions: endpoint: median survival time, higher = longer survival
Procedure, shortened: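 Mice carrying the transplanted tumor received test compound or vehicle. Survival was recorded in each group, and the value is the treated-group measurement divided by that of the vehicle-treated control group.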

[1] = dose: 100.0 mg/kg/injection, schedule: Q01DX001 (ip), vehicle: Klucel (hydroxypropylcellulose) (HPC)
[2] = dose: 200.0 mg/kg/injection, schedule: Q01DX001 (ip), vehicle: Klucel (hydroxypropylcellulose) (HPC)
[3] = dose: 400.0 mg/kg/injection, schedule: Q01DX001 (ip), vehicle: Klucel (hydroxypropylcellulose) (HPC)
[4] = dose: 50.0 mg/kg/injection, schedule: Q01DX009 (ip), vehicle: saline with Tween-80
[5] = dose: 100.0 mg/kg/injection, schedule: Q01DX009 (ip), vehicle: saline with Tween-80
[6] = dose: 50.0 mg/kg/injection, schedule: Q01DX005 (ip), vehicle: saline
[7] = dose: 100.0 mg/kg/injection, schedule: Q01DX005 (ip), vehicle: saline
[8] = dose: 200.0 mg/kg/injection, schedule: Q01DX005 (ip), vehicle: saline
[9] = dose: 50.0 mg/kg/injection, schedule: Q01DX005 (ip), vehicle: Klucel (hydroxypropylcellulose) (HPC)
[10] = dose: 100.0 mg/kg/injection, schedule: Q01DX005 (ip), vehicle: Klucel (hydroxypropylcellulose) (HPC)
[11] = dose: 200.0 mg/kg/injection, schedule: Q01DX005 (ip), vehicle: Klucel (hydroxypropylcellulose) (HPC)

Measured: T/C

OCC(O)/C=C/c1ccccc1 (stereo unspecified)
inactive: [1] 95 % of control | dose: 100.0 mg/kg/injection, schedule: Q04DX002 (ip), vehicle: saline with Tween-80 96 % of control | [2] 103 % of control | dose: 200.0 mg/kg/injection, schedule: Q04DX002 (ip), vehicle: saline with Tween-80 90 % of control | [3] 108 % of control | dose: 400.0 mg/kg/injection, schedule: Q04DX002 (ip), vehicle: saline with Tween-80 99 % of control

CSc1nnc(CCC(=O)Nc2c(C)cccc2C(C)(C)C)o1
inactive: dose: 60.0 mg/kg/injection, schedule: Q01DX005 (ip), vehicle: saline with Tween-80 104 % of control | dose: 120.0 mg/kg/injection, schedule: Q01DX005 (ip), vehicle: saline with Tween-80 99 % of control | dose: 240.0 mg/kg/injection, schedule: Q01DX005 (ip), vehicle: saline with Tween-80 91 % of control

N=C(N)N
inactive: [4] 100 % of control | [5] 100 % of control

O=C1C2CCC(N1CCc1ccccc1)n1c(=O)n(-c3ccccc3)c(=O)n12 (stereo unspecified)
inactive: [1] 99 % of control | [2] 104 % of control | [3] 97 % of control

NNc1nncn1N
inactive: dose: 50.0 mg/kg/injection, schedule: Q01DX009 (ip), vehicle: saline 104 % of control and 91 % of control | dose: 100.0 mg/kg/injection, schedule: Q01DX009 (ip), vehicle: saline 104 % of control and 89 % of control | dose: 200.0 mg/kg/injection, schedule: Q01DX009 (ip), vehicle: saline 86 % of control and 95 % of control

CCOC(=O)/N=[N+](\[O-])c1cccc(Br)c1
inactive: [1] 101 % of control

CCCCCC[N+]1([O-])CC[N+]([O-])(CCCCCC)CC1 (stereo unspecified)
inactive: dose: 15.0 mg/kg/injection, schedule: Q01DX005 (ip), vehicle: saline 101 % of control | dose: 30.0 mg/kg/injection, schedule: Q01DX005 (ip), vehicle: saline 102 % of control | dose: 60.0 mg/kg/injection, schedule: Q01DX005 (ip), vehicle: saline 102 % of control and 103 % of control

CCN(CC)CCC(=O)Nc1cccc2c1C(=O)c1c(c(O)c3ccccc3c1O)C2=O
inactive: dose: 6.25 mg/kg/injection, schedule: Q04DX003 (ip), vehicle: Klucel (hydroxypropylcellulose) (HPC) 100 % of control | dose: 12.5 mg/kg/injection, schedule: Q04DX003 (ip), vehicle: Klucel (hydroxypropylcellulose) (HPC) 100 % of control | dose: 25.0 mg/kg/injection, schedule: Q04DX003 (ip), vehicle: Klucel (hydroxypropylcellulose) (HPC) 104 % of control | dose: 25.0 mg/kg/injection, schedule: Q04DX003 (ip), vehicle: saline 98 % of control | dose: 50.0 mg/kg/injection, schedule: Q04DX003 (ip), vehicle: Klucel (hydroxypropylcellulose) (HPC) 100 % of control | dose: 50.0 mg/kg/injection, schedule: Q04DX003 (ip), vehicle: saline 92 % of control | dose: 100.0 mg/kg/injection, schedule: Q04DX003 (ip), vehicle: Klucel (hydroxypropylcellulose) (HPC) 106 % of control | dose: 100.0 mg/kg/injection, schedule: Q04DX003 (ip), vehicle: saline 108 % of control | dose: 200.0 mg/kg/injection, schedule: Q04DX003 (ip), vehicle: saline 100 % of control

CC(=O)CCC1=C(C)C(=O)C(=O)C(C)=C1O
inactive: dose: 60.0 mg/kg/injection, schedule: Q01DX005 (ip), vehicle: Klucel (hydroxypropylcellulose) (HPC) 96 % of control | dose: 120.0 mg/kg/injection, schedule: Q01DX005 (ip), vehicle: Klucel (hydroxypropylcellulose) (HPC) 98 % of control

CC(=O)CC(C)=O.CC(=O)CC(C)=O.[Cl][Sn][c]1ccccc1
inactive: dose: 25.0 mg/kg/injection, schedule: Q01DX005 (ip), vehicle: saline 109 % of control and 116 % of control | [6] 110 % of control and 122 % of control | [7] 109 % of control and 115 % of control | [8] 107 % of control and 111 % of control and 113 % of control

CC/C(=N/NS(=O)(=O)c1ccc(C)cc1)C(=O)O
inactive: dose: 25.0 mg/kg/injection, schedule: Q01DX005 (ip), vehicle: Klucel (hydroxypropylcellulose) (HPC) 90 % of control | [9] 92 % of control | [10] 92 % of control | [11] 91 % of control | dose: 400.0 mg/kg/injection, schedule: Q01DX005 (ip), vehicle: Klucel (hydroxypropylcellulose) (HPC) 88 % of control

Cc1ccc2[nH]c3nc4cc(C)c(C)cc4nc3c2c1
inactive: dose: 6.25 mg/kg/injection, schedule: Q01DX005 (ip), vehicle: saline with Tween-80 93 % of control | dose: 12.5 mg/kg/injection, schedule: Q01DX005 (ip), vehicle: saline with Tween-80 93 % of control | dose: 25.0 mg/kg/injection, schedule: Q01DX005 (ip), vehicle: saline with Tween-80 87 % of control | dose: 50.0 mg/kg/injection, schedule: Q01DX005 (ip), vehicle: saline with Tween-80 96 % of control | dose: 100.0 mg/kg/injection, schedule: Q01DX005 (ip), vehicle: saline with Tween-80 105 % of control | dose: 200.0 mg/kg/injection, schedule: Q01DX005 (ip), vehicle: saline with Tween-80 108 % of control

CC1(CCl)Nc2ccccc2C(=O)N1c1ccc(F)cc1 (stereo unspecified)
inactive: [4] 103 % of control | [5] 95 % of control | dose: 200.0 mg/kg/injection, schedule: Q01DX009 (ip), vehicle: saline with Tween-80 95 % of control

CC(=NCc1ccccc1)NOCc1ccccc1
inactive: [6] 114 % of control | [7] 108 % of control | [8] 101 % of control

C=C(C)c1nc(N)nc(N2CCCCC2)n1
inactive: [9] 98 % of control | [10] 102 % of control | [11] 117 % of control
